Experimental findings from patent US20260184721A2, “FUSED RING COMPOUND, CONJUGATE THEREOF AND USE THEREOF” (Keymed Biosciences (Chengdu) Co., Ltd., priority 2022, published 2026) are described below.

One test has as its system NCI-N87 tumor cells. The test can be described thus: In vitro proliferation inhibitory activity of compounds of Formula (GH) on NCI-N87 tumor cells (CCK8). The class given is cell-based, human. As to conditions: read-out: IC50 for inhibiting proliferation of NCI-N87 cells in vitro. The procedure: The objective of this experiment is to detect the in vitro killing activity of the compound of Formula (GH) disclosed in the present invention on NCI-N87 tumor cells (human gastric cancer cells, Cell Resource Center, Institute of Basic Medicine, Chinese Academy of Medical Sciences, Catalog No. 3111C0001CCC000481). The cells were treated with different concentrations of the compound in vitro, and after 6 days of culture, the number of viable cells was detected using CCK8 (Cell Counting Kit-8, Catalog No. TS547) reagents, and the in vitro activity of the test compound was evaluated according to the IC50 value.
• (1) Cell culture: NCI-N87 cells were cultured in the RPMI 1640 medium containing 2% FBS (Shanghai BasalMedia Technologies Co., Ltd., Catalog No. L210KJ). • (2) Cell preparation: NCI-N87 cells in the logarithmic growth phase were taken, washed once with PBS (phosphate buffered saline, Shanghai BasalMedia Technologies Co., Ltd., Catalog No. E211004), added with 1 mL of trypsin (0.25% Trypsin-EDTA (1×), Shanghai BasalMedia Technologies Co., Ltd., Catalog No. A121002) to allow digestion for 2 to 3 minutes. After the cells were completely digested, 10 mL of the cell culture medium was added to wash off and obtain the digested cells, centrifugation was performed at 300 times gravitational acceleration (g) for 5 min, the supernatant was discarded, then 10 mL of PBS was added to wash the cells once, centrifugation was performed at 300 times gravitational acceleration (g) for 5 minutes, the supernatant was discarded, and 10 mL of the cell culture medium containing 2% FBS was added to resuspend the cells to prepare a single cell suspension. • (3) Cell plating: The NCI-N87 single cell suspension was mixed, the density of live cells was adjusted to 3×10^4 cells/mL with 2% FBS cell culture medium, the cell suspension after density adjustment was mixed well, and added to a 96-well cell culture plate at 100 μL/well. Only 200 μL of PBS was added to each of the peripheral wells of the 96-well plate. The plate was incubated in an incubator for 24 hours (37° C., 5% CO2). • (4) Preparation of sample to be tested:
The sample to be tested was diluted to 3200 nM with cell culture medium containing 2% FBS, then 300 μL of the sample was added to the first well of a 96-well U-bottomed plate with a sample concentration of 3200 nM; and 210 μL of cell culture medium containing 2% FBS was added to each well of the second to tenth columns. 70 μL of the sample was taken from the first column and added to the 210 μL cell culture medium in the second column and mixed well, 70 μL was taken and added to the third column, and so on to the ninth column. • (5) Sample loading operation: 100 μL of the sample to be tested with different concentrations was added to the culture plate, two replicate wells were set for each sample. The culture plate was incubated in an incubator for 6 days (37° C., 5% CO2). • (6) Color development operation: The 96-well cell culture plate was taken out, the supernatant of the culture medium was removed by tapping, 100 μL of 10% CCK8 (prepared with RPMI 1640 basal culture medium, without FBS) solution was added to each well, and incubation was performed in an incubator for 2 hours. • (7) Plate reading operation: The 96-well cell culture plate was taken out, placed in an ELISA reader (SpectraMax i3X), and A450 was determined by the ELISA reader. • (8) Data analysis: Microsoft Excel and Graphpad Prism 5 were used to process and analyze the data.

The test system of another test is SK-BR-3 tumor cells. The test can be described thus: In vitro proliferation inhibitory activity of compounds of Formula (GH) on SK-BR-3 tumor cells (CCK8). Type of test: cell-based. As to conditions: Homo sapiens, SK-BR-3, 72 h, 3 days of culture, read-out: IC50 for inhibiting proliferation of SK-BR-3 cells in vitro. Here is the method:
The objective of this experiment is to detect the in vitro killing activity of the compound of Formula (GH) of the present disclosure on SK-BR-3 tumor cells (human breast cancer cells, Wuhan Procell, Catalog No. CL-0211). The cells were treated with different concentrations of the compound in vitro. After 3 days of culture, the number of viable cells was detected using CCK8 (Cell Counting Kit-8, Catalog No. TS547) reagents, and the in vitro activity of the test compound was evaluated according to the IC50 value.
Taking the test method of in vitro killing activity on SK-BR-3 cells as an example, the following test was performed. […] After the cells were completely digested, 10 mL of cell culture medium containing 2% FBS was added to wash out the digested cells, centrifugation was performed at 300 g for 5 min, the supernatant was discarded, and then 10 to 20 mL of cell culture medium containing 2% FBS was added to resuspend the cells to prepare a single cell suspension. • (3) Cell plating: The SK-BR-3 single cell suspension was mixed well, the viable cell density was adjusted to 6×10^4 cells/mL with the cell culture medium containing 2% FBS, the cell suspension after density adjustment was mixed well, and added to a 96-well cell culture plate at 100 μL/well. Only 200 μL of PBS was added to the peripheral wells of the 96-well plate. The culture plate was incubated in an incubator for 24 hours (37° C., 5% CO2). • (4) Compound preparation: The compound was dissolved in DMSO (dimethyl sulfoxide, SIGMA) to prepare a 2 mM stock solution.
The starting concentrations of small molecule compounds and Dxd were both 600 nM, and the preparation method was as follows.
Then, 315 μL of different samples to be tested were added to the first column of a 96-well U-bottomed drug distribution plate, and the sample concentration was 1200 nM; 210 μL of the cell culture medium containing 2% FBS was added to each well of the second to tenth columns. 105 μL of the sample was taken from the first column and added to the 210 μL cell culture medium in the second column and mixed well, and 105 μL was taken and added to the third column, and so on to the tenth column. • (5) Sample loading operation: 100 μL of the sample to be tested of different concentrations was added to the culture plate, and two replicate wells were set for each sample. The culture plate was incubated in an incubator for 3 days (37° C., 5% CO2). • (6) Color development operation: The 96-well cell culture plate was taken out, the cell culture supernatant was removed by tapping, 100 μL of the RPMI 1640 basal medium (without FBS) containing 10% CCK8 was added, and then it was incubated in an incubator for about 1.5 hours (37° C., 5% CO2). • (7) Plate reading operation: The 96-well cell culture plate was taken out, placed in an ELISA reader (MD SpectraMax i3X), and A450 was determined by the ELISA reader. • (8) Data analysis: Microsoft Excel and Graphpad Prism 5 were used to process and analyze the data.

Where [1] appears, read: Homo sapiens, NCI-N87, 6 days of culture, CCK8.

Where two headings read alike, the source gives them in different places.

For the compound `Cc1c(F)cc2nc3c(c4c2c1CC[C@@H]4NC(=O)CO)Cn1c-3cc2c(c1=O)COC(=O)[C@]2(O)CC1CC1` [Compound 1-B, N-((1S,9S)-9-(cyclopropylmethyl)-5-fluoro-9-hydroxy-4-methyl-10,13-dioxo-2,3,9,10,13,15-hexahydro-1H,12H-benzo[de]pyrano[3′,4′:6,7]indolizino[1,2-b]quinolin-1-yl)-2-hydroxyacetamide], the IC50 in the test with NCI-N87 tumor cells (setting [1]) came out at 5.36 nM; in the test on SK-BR-3 tumor cells, 1.94 nM.

Regarding `Cc1c(F)cc2nc3c(c4c2c1CC[C@@H]4NC(=O)[C@H](C)O)Cn1c-3cc2c(c1=O)COC(=O)[C@]2(O)CC1CC1` [Compound 2-A, (S)-N-((1S,9S)-9-(Cyclopropylmethyl)-5-fluoro-9-hydroxy-4-methyl-10,13-dioxo-2,3,9,10,13,15-hexahydro-1H,12H-benzo[de]pyrano[3′,4′:6,7]indolizino[1,2-b]quinolin-1-yl)-2-hydroxypropanamide], the IC50 with NCI-N87 tumor cells (setting [1]) came out at 1.92 nM; in the test with SK-BR-3 tumor cells, 5.88 nM.

For `Cc1c(F)cc2nc3c(c4c2c1CC[C@@H]4NC(=O)[C@@H](C)O)Cn1c-3cc2c(c1=O)COC(=O)[C@]2(O)CC1CC1` [Compound 3-A, (R)-N-((1S,9S)-9-(cyclopropylmethyl)-5-fluoro-9-hydroxy-4-methyl-10,13-dioxo-2,3,9,10,13,15-hexahydro-1H,12H-benzo[de]pyrano[3′,4′:6,7]indolizino[1,2-b]quinolin-1-yl)-2-hydroxypropanamide], the IC50 in the test on NCI-N87 tumor cells (setting [1]) amounted to 5.28 nM; in the test with SK-BR-3 tumor cells, 5.91 nM. Take `Cc1c(F)cc2nc3c(c4c2c1CC[C@@H]4NC(=O)[C@@H](O)C1CC1)Cn1c-3cc2c(c1=O)COC(=O)[C@]2(O)CC1CC1` [Compound 4-A, (S)-2-Cyclopropyl-N-((1S,9S)-9-(cyclopropylmethyl)-5-fluoro-9-hydroxy-4-methyl-10,13-dioxo-2,3,9,10,13,15-hexahydro-1H,12H-benzo[de]pyrano[3′,4′:6,7]indolizino[1,2-b]quinolin-1-yl)-2-hydroxyacetamide]: the IC50 came out at 2.4 nM in the test on NCI-N87 tumor cells (Homo sapiens, NCI-N87, […]) and 6.42 nM in the test on SK-BR-3 tumor cells. Taken in the same sequence, the figures for `Cc1c(F)cc2nc3c(c4c2c1CC[C@H]4NC(=O)[C@H](O)C1CC1)Cn1c-3cc2c(c1=O)COC(=O)[C@]2(O)CC1CC1` [Compound 5-B, (R)-2-Cyclopropyl-N-((1R,9S)-9-(cyclopropylmethyl)-5-fluoro-9-hydroxy-4-methyl-10,13-dioxo-2,3,9,10,13,15-hexahydro-1H,12H-benzo[de]pyrano[3′,4′:6,7]indolizino[1,2-b]quinolin-1-yl)-2-hydroxyacetamide] were 2.96 nM and 4.92 nM. In the same order, the values of `CC[C@@]1(O)C(=O)OCc2c1cc1n(c2=O)Cc2c-1nc1cc(F)c3c(c1c2CNC(=O)[C@H](C)O)CCC3` [Compound 25, (S)-N-(((S)-8-Ethyl-4-fluoro-8-hydroxy-9,12-dioxo-2,3,8,9,12,14-hexahydro-1H,11H-cyclopenta[f]pyrano[3′,4′:6,7]indolizino[1,2-b]quinolin-15-yl)methyl)-2-hydroxypropanamide] are 5.46 nM and 5.41 nM. For the compound `CC[C@@]1(O)C(=O)OCc2c1cc1n(c2=O)Cc2c-1nc1cc(F)c(C)c3c1c2[C@@H](NC(=O)CO)CC3` [Dxd, reference compound], the IC50 in the test on NCI-N87 tumor cells (6 days of culture, CCK8) was found to be 10.2 nM.
